pEC50: −log10 of the molar value. Like-named read-outs stand apart in the source and are kept apart here.
How the values were obtained:
Format in all cases: cell-based
[1] = system: HCV 1b RLuc cells (dicistronic genotype 1b Con1 replicon, RLuc reporter); assay: microbe, parasite or virus in culture; details: Hepatitis C virus, read-out: 1b (nM)
Method in brief: (§1)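 Replicon cells stably carrying the listed RLuc-encoding dicistronic replicons were seeded and treated with DMSO serial dilutions of compound (10 mM stocks) diluted into culture medium. After 72 h, cells were lysed and Renilla luciferase activity measured. EC50 was derived by non-linear regression.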

[2] = system: HCV 2a JFH-1 Rluc cells (dicistronic genotype 2a JFH-1 replicon, RLuc reporter); assay: microbe, parasite or virus in culture; details: Hepatitis C virus, read-out: 2a JFH
Method in brief: as §1

[3] = system: HCV 4a Rluc cells (NS5A chimeric genotype 1b Con1 replicon with genotype 4a NS5A gene); assay: microbe, parasite or virus in culture; details: Hepatitis C virus, read-out: 4a
Method in brief: as §1

[4] = system: HCV 1a RLuc cells (dicistronic genotype 1a H77 replicon, RLuc reporter); assay: microbe, parasite or virus in culture; details: Hepatitis C virus, read-out: 1a
Method in brief: as §1

[5] = system: HCV 2b Rluc cells (NS5A chimeric genotype 2a JFH-1 replicon with genotype 2b MD2b-1 NS5A gene, M31 present); assay: microbe, parasite or virus in culture; details: Hepatitis C virus, read-out: 2b
Method in brief: as §1

[6] = system: HCV 3a RLuc cells (NS5A chimeric genotype 1b Con1 replicon with consensus genotype 3a NS5A gene); assay: microbe, parasite or virus in culture; details: Hepatitis C virus
Method in brief: as §1

[7] = system: Q30R in genotype 1a NS5A, 1a Rluc replicon transfected into Huh-7 cured-51 cells; assay: HCV replicon assay, resistance mutant 1a Q30R; details: Hepatitis C virus, Huh-7, read-out: 1a Q30R
Method in brief: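 Q30R introduced into genotype 1a H77 RLuc replicon by site-directed mutagenesis; replicon RNA transfected into Huh-7 cured-51 cells.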

[8] = system: HCV 2a Rluc cells (NS5A chimeric genotype 2a JFH-1 replicon with genotype 2a J6 strain NS5A gene, M31 present); assay: HCV replicon reporter assay, genotype 2a J6 (M31 present); details: Hepatitis C virus, read-out: 2a J6
Method in brief: as §1

[9] = read-out: 3a, genotype 3a replicon
[10] = genotype 2a JFH-1 RLuc replicon
[11] = read-out: 3a, genotype 3a NS5A chimeric replicon

Structure (SMILES)	EC50 [1] [nM]	pEC50 ([2]; genotype 2a JFH-1 replicon)	pEC50 [3]	pEC50 ([4]; genotype 1a replicon)	pEC50 [5]	pEC50 [6, 9]	pEC50 [7]	pEC50 [8]	pEC50 [2, 10]	pEC50 ([4]; genotype 1a H77 RLuc replicon)	pEC50 [6, 11]	EC50 ([1]; 72 h) [nM]	pEC50 ([2]; 72 h, Table 2, genotype 2a JFH-1 replicon, 72 hours)	pEC50 ([4]; 72 h, Table 2, genotype 1a H77 replicon, 72 hours)	pEC50 ([6]; read-out: 3a, Table 2, genotype 3a NS5A chimeric replicon)
COC(=O)N[C@H](C(=O)N1CCC[C@H]1c1ncc(-c2ccc3c(c2)COc2cc4c(ccc5nc([C@@H]6CCCN6C(=O)[C@H](NC(=O)OC)c6ccccc6)[nH]c54)cc2-3)[nH]1)C(C)C [Example 423]	0.02	9.00 to 12.00	9.00 to 12.00	9.00 to 12.00	9.00 to 12.00	9.00 to 12.00	9.00 to 12.00	9.00 to 12.00							
COC(=O)N[C@H](C(=O)N1CCC[C@H]1c1ncc(-c2ccc3c(c2)COc2cc4c(ccc5nc([C@@H]6CCCN6C(=O)[C@@H](NC(=O)OC)C(C)C)[nH]c54)cc2-3)[nH]1)C(C)C [Example 422]	0.017	9.00 to 12.00	9.00 to 12.00	9.00 to 12.00	9.00 to 12.00	9.00 to 12.00	9.00 to 12.00	7.36 to 9.00							
COC(=O)N[C@H](C(=O)N1C[C@@H](C)C[C@H]1c1nc2ccc3cc4c(cc3c2[nH]1)OCc1cc(-c2cnc([C@@H]3C[C@H](C)CN3C(=O)[C@H](NC(=O)OC)c3ccccc3)[nH]2)ccc1-4)C(C)C [Example 573]	0.03		9.00 to 12.00		9.00 to 12.00		9.00 to 12.00	9.00 to 12.00	9.00 to 12.00	9.00 to 12.00	9.00 to 12.00				
COC[C@H]1C[C@@H](c2ncc(-c3ccc(-c4ccc(-c5cnc([C@@H]6CCCN6C(=O)[C@@H](NC(=O)OC)C(C)C)[nH]5)cc4)cc3)[nH]2)N(C(=O)[C@H](NC(=O)C2CC2)c2ccccc2)C1 [Example 506]	0.036		9.00 to 12.00		9.00 to 12.00		9.00 to 12.00	9.00 to 12.00	9.00 to 12.00	9.00 to 12.00	9.00 to 12.00				
COC[C@H]1C[C@@H](c2ncc(-c3ccc4c(c3)COc3cc5c(ccc6nc([C@@H]7CCCN7C(=O)[C@@H](NC(=O)OC)C(C)C)[nH]c65)cc3-4)[nH]2)N(C(=O)[C@H](NC(=O)OC)c2ccccc2)C1 [Example 590]	0.014		9.00 to 12.00		9.00 to 12.00		9.00 to 12.00	9.00 to 12.00	9.00 to 12.00	9.00 to 12.00	9.00 to 12.00				
COC[C@H]1C[C@@H](c2ncc(-c3ccc(-c4ccc(-c5cnc([C@@H]6C[C@H]7C[C@H]7N6C(=O)[C@@H](NC(=O)OC)C(C)C)[nH]5)cc4)cc3)[nH]2)N(C(=O)[C@H](NC(=O)C2CC2)c2ccccc2)C1 [Example 527]	0.022		9.00 to 12.00		9.00 to 12.00		9.00 to 12.00	9.00 to 12.00	9.00 to 12.00	9.00 to 12.00	9.00 to 12.00				
COC(=O)N[C@H](C(=O)N1CCC[C@H]1c1nc2ccc3cc(-c4ccc5c(ccc6nc([C@@H]7[C@@H]8CC[C@@H](C8)N7C(=O)[C@@H](NC(=O)OC)C(C)C)[nH]c65)c4)ccc3c2[nH]1)C(C)C [Example 339]	0.026	9.00 to 12.00	9.00 to 12.00	9.00 to 12.00	7.36 to 9.00	9.00 to 12.00	7.36 to 9.00	9.00 to 12.00							
COC(=O)N[C@H](C(=O)N1CCC[C@H]1c1nc2ccc3cc(-c4ccc5c(ccc6nc([C@@H]7[C@H]8CC[C@H](C8)N7C(=O)[C@@H](NC(=O)OC)C(C)C)[nH]c65)c4)ccc3c2[nH]1)C(C)C [Example 63]			9.00 to 12.00		< 7.36		7.36 to 9.00	7.36 to 9.00				0.019	9.00 to 12.00	9.00 to 12.00	9.00 to 12.00
COC[C@H]1C[C@@H](c2nc3ccc4cc(-c5ccc6c(ccc7nc([C@@H]8CCCN8C(=O)[C@@H](NC(=O)OC)C(C)C)[nH]c76)c5)ccc4c3[nH]2)N(C(=O)[C@H](NC(=O)OC)c2ccccc2)C1 [Example 453]	0.018	9.00 to 12.00	9.00 to 12.00	9.00 to 12.00	9.00 to 12.00	9.00 to 12.00	9.00 to 12.00	9.00 to 12.00							
COC(=O)N[C@H](C(=O)N1[C@@H]2C[C@@H]2C[C@H]1c1ncc(-c2cc3c4c(c2)OCc2cc(-c5cnc([C@@H]6C[C@H]7C[C@H]7N6C(=O)[C@@H](NC(=O)OC)C(C)C)[nH]5)cc(c2-4)OC3)[nH]1)C(C)C [Example 414]	0.022	9.00 to 12.00	9.00 to 12.00	9.00 to 12.00	7.36 to 9.00	9.00 to 12.00	7.36 to 9.00	7.36 to 9.00							

Source: patent publication US10344019B2 (priority 2010, dated 2019)
